These results are taken from US20240182948A1, “METHODS AND COMPOSITIONS FOR DETECTION OF TUMOR DNA” (The Broad Institute, Inc., priority 2021, published 2024).

The test has as its system macrophages co-incubated with apoptotic KPLG cells. Description: Chloroquine treatment of macrophages after co-incubation with apoptotic KPLG cells; recovery of tumor DNA from cell fractions. The class given is cell-based, murine. As for the experimental part: FIG. 9A: Cytoplasmic DNA mass recovered from macrophages with or without 25 μM CQ treatment for 3 hours. FIG. 9B: Nuclear DNA mass recovered from macrophages with or without 25 μM CQ treatment for 3 hours. FIG. 9C: Cytoplasmic KRAS G12D to WT ratio. Apoptotic KPLG cells were washed away after 1 hour of co-incubation with macrophages before CQ treatment. FIG. 9D: Nuclear KRAS G12D to WT ratio. Apoptotic KPLG cells were washed away after 1 hour of co-incubation with macrophages before CQ treatment.
To test if pharmacologically blocking the DNA degradation pathway could lead to increased recovery of tumor DNA in macrophages, apoptotic KPLG cells were co-incubated with macrophage cells for 1 hour, after which apoptotic cells were washed away, and macrophages were treated either with or without 25 μM chloroquine.
Cell lines: KPLG cells were kindly provided by the Jacks Laboratory at the Massachusetts Institute of Technology (MIT). BMDM were harvested from femurs of wild-type […] mice and DNase 2a−/− mice. KPLG cells were cultured in DMEM supplemented with 10% fetal bovine serum (Gibco) and 1% penicillin/streptomycin (Corning); BMDM cells were cultured in DMEM supplemented with 10% fetal bovine serum (Gibco) and 1% penicillin/streptomycin (Corning), and 15% L929 conditioned medium. All cells were cultured in a humidified atmosphere of 95% air and 5% CO2 at 37° C. The KPLG cell line was declared pathogen free after being subjected to murine pathogen testing by the Diagnostic Laboratory of the Division of Comparative Medicine (MIT).
Cell fractionation and DNA extraction: Cells were collected by centrifugation at 3000×g for 7 min. The cells were lysed using four volumes of lysis buffer (20 mM Tris-HCl, pH 7.4, 10 mM KCl, 2 mM MgCl2, 1 mM DTT, and 1 mM EDTA) for 20 min. on ice. The nuclear pellet was collected by centrifugation twice at 800×g for 5 min. The mitochondrial fraction was collected by centrifugation twice at 10,000×g for 10 min. The collected supernatant was used as the cytoplasmic fraction. […]

Take `CCN(CC)CCCC(C)Nc1ccnc2cc(Cl)ccc12` (stereo not drawn) [Chloroquine, chloroquine]: under “25 μM CQ treatment for 3 hours, legend of FIGS. 9A-9D”, the “digestion of cytoplasmic tumor-derived DNA by macrophages” value was “inhibits digestion”. In addition, for the setting “25 μM chloroquine vs. no treatment, apoptotic KPLG cells washed away after 1 hour of co-incubation, FIG. 9A: treatment for 3 hours”, the “total cytoplasmic DNA mass recovered from macrophages” value is on record as “increase”. In addition, the “presence of KRAS G12D in the cytoplasmic DNA fraction of macrophages (KRAS G12D to WT ratio)” value (25 μM chloroquine vs. no treatment, apoptotic KPLG cells washed away after 1 hour of co-incubation, TaqMan qPCR) was “increase”.
